Measurements from article PMC7724566, “Prospects for Clinical Development of Stat5 Inhibitor IST5-002: High Transcriptomic Specificity in Prostate Cancer and Low Toxicity In Vivo” (Cancers, 2020).

Tests used:
Test in all cases: Kinase Seeker luminescence cell-free assay
Type in all cases: binding
ABL2 = molecular target: T1, ABL2 (Homo sapiens, UniProt P42684); settings: percent activity of kinase after exposure to IST5 1 µM
T1 construct: purchased Reaction Biology (JAK1/2/3, TYK2); Luceome Biotechnologies KinaseSeeker (others)
Experimental: (§1) For Jak1, Jak2, Jak3 and Tyk2, a radiometric filtration binding assay was conducted by Reaction Biologicals (Malvern, PA, USA) (Table 1). This radiometric assay is a cell-free assay which is based on conventional filter-binding assays, directly measuring kinase catalytic activity toward a specific substrate. For evaluation of the activity of the other kinases, the Kinase Seeker Technology was utilized (Luceome Biotechnologies, Tucson, AZ, USA), which is a luminescence-based cell-free assay. In this assay, the reassembly of luciferase fragments is mediated by the interaction of a kinase with an active site-dependent probe. The competitive displacement of the probe by an inhibitor is measured by a change in luminescence signal. Percent activity of each kinase after exposure to IST5 (1 µM) is presented.

AKT2 = molecular target: T2, AKT2 (Homo sapiens, UniProt P31751); settings: percent activity of kinase after exposure to IST5 1 µM
T2 construct: purchased Reaction Biology (JAK1/2/3, TYK2); Luceome Biotechnologies KinaseSeeker (others)
Experimental: as §1

AKT3 = molecular target: T3, AKT3 (Homo sapiens, UniProt Q9Y243); settings: percent activity of kinase after exposure to IST5 1 µM
T3 construct: purchased Reaction Biology (JAK1/2/3, TYK2); Luceome Biotechnologies KinaseSeeker (others)
Experimental: as §1

AURKA = molecular target: T4, AURKA (Homo sapiens, UniProt O14965); settings: percent activity of kinase after exposure to IST5 1 µM
T4 construct: purchased Reaction Biology (JAK1/2/3, TYK2); Luceome Biotechnologies KinaseSeeker (others)
Experimental: as §1

AURKB = molecular target: T5, AURKB (Homo sapiens, UniProt Q96GD4); settings: percent activity of kinase after exposure to IST5 1 µM
T5 construct: purchased Reaction Biology (JAK1/2/3, TYK2); Luceome Biotechnologies KinaseSeeker (others)
Experimental: as §1

AXL = molecular target: T6, AXL (Homo sapiens, UniProt P30530); settings: percent activity of kinase after exposure to IST5 1 µM
T6 construct: purchased Reaction Biology (JAK1/2/3, TYK2); Luceome Biotechnologies KinaseSeeker (others)
Experimental: as §1

BLK = molecular target: T7, BLK (Homo sapiens, UniProt P51451); settings: percent activity of kinase after exposure to IST5 1 µM
T7 construct: purchased Reaction Biology (JAK1/2/3, TYK2); Luceome Biotechnologies KinaseSeeker (others)
Experimental: as §1

CAMK1D = molecular target: T8, CAMK1D (Homo sapiens, UniProt Q8IU85); settings: percent activity of kinase after exposure to IST5 1 µM
T8 construct: purchased Reaction Biology (JAK1/2/3, TYK2); Luceome Biotechnologies KinaseSeeker (others)
Experimental: as §1

CAMKK1 = molecular target: T9, CAMKK1 (Homo sapiens, UniProt Q8N5S9); settings: percent activity of kinase after exposure to IST5 1 µM
T9 construct: purchased Reaction Biology (JAK1/2/3, TYK2); Luceome Biotechnologies KinaseSeeker (others)
Experimental: as §1

CAMKK2 = molecular target: T10, CAMKK2 (Homo sapiens, UniProt Q96RR4); settings: percent activity of kinase after exposure to IST5 1 µM
T10 construct: purchased Reaction Biology (JAK1/2/3, TYK2); Luceome Biotechnologies KinaseSeeker (others)
Experimental: as §1

DDR2 = molecular target: T11, DDR2 (Homo sapiens, UniProt Q16832); settings: percent activity of kinase after exposure to IST5 1 µM
T11 construct: purchased Reaction Biology (JAK1/2/3, TYK2); Luceome Biotechnologies KinaseSeeker (others)
Experimental: as §1

FLT1 = molecular target: T12, FLT1 (Homo sapiens, UniProt P17948); settings: percent activity of kinase after exposure to IST5 1 µM
T12 construct: purchased Reaction Biology (JAK1/2/3, TYK2); Luceome Biotechnologies KinaseSeeker (others)
Experimental: as §1

FLT2/3 = settings: percent activity of kinase after exposure to IST5 1 µM
Experimental: as §1

IKKe = molecular target: T13, IKKe (Homo sapiens, UniProt Q14164); settings: percent activity of kinase after exposure to IST5 1 µM
T13 construct: purchased Reaction Biology (JAK1/2/3, TYK2); Luceome Biotechnologies KinaseSeeker (others)
Experimental: as §1

INSR = molecular target: T14, INSR (Homo sapiens, UniProt P06213); settings: percent activity of kinase after exposure to IST5 1 µM
T14 construct: purchased Reaction Biology (JAK1/2/3, TYK2); Luceome Biotechnologies KinaseSeeker (others)
Experimental: as §1

LCK = molecular target: T15, LCK (Homo sapiens, UniProt P06239); settings: percent activity of kinase after exposure to IST5 1 µM
T15 construct: purchased Reaction Biology (JAK1/2/3, TYK2); Luceome Biotechnologies KinaseSeeker (others)
Experimental: as §1

LYN = molecular target: T16, LYN (Homo sapiens, UniProt P07948); settings: percent activity of kinase after exposure to IST5 1 µM
T16 construct: purchased Reaction Biology (JAK1/2/3, TYK2); Luceome Biotechnologies KinaseSeeker (others)
Experimental: as §1

MLK1 = molecular target: T17, MLK1 (Homo sapiens, UniProt P80192); settings: percent activity of kinase after exposure to IST5 1 µM
T17 construct: purchased Reaction Biology (JAK1/2/3, TYK2); Luceome Biotechnologies KinaseSeeker (others)
Experimental: as §1

MLK3 = molecular target: T18, MLK3 (Homo sapiens, UniProt Q16584); settings: percent activity of kinase after exposure to IST5 1 µM
T18 construct: purchased Reaction Biology (JAK1/2/3, TYK2); Luceome Biotechnologies KinaseSeeker (others)
Experimental: as §1

MSK2 = molecular target: T19, MSK2 (Homo sapiens, UniProt O75676); settings: percent activity of kinase after exposure to IST5 1 µM
T19 construct: purchased Reaction Biology (JAK1/2/3, TYK2); Luceome Biotechnologies KinaseSeeker (others)
Experimental: as §1

MUSK = molecular target: T20, MUSK (Homo sapiens, UniProt O15146); settings: percent activity of kinase after exposure to IST5 1 µM
T20 construct: purchased Reaction Biology (JAK1/2/3, TYK2); Luceome Biotechnologies KinaseSeeker (others)
Experimental: as §1

PAK1 = molecular target: T21, PAK1 (Homo sapiens, UniProt Q13153); settings: percent activity of kinase after exposure to IST5 1 µM
T21 construct: purchased Reaction Biology (JAK1/2/3, TYK2); Luceome Biotechnologies KinaseSeeker (others)
Experimental: as §1

PDGFRA = molecular target: T22, PDGFRA (Homo sapiens, UniProt P16234); settings: percent activity of kinase after exposure to IST5 1 µM
T22 construct: purchased Reaction Biology (JAK1/2/3, TYK2); Luceome Biotechnologies KinaseSeeker (others)
Experimental: as §1

PDGFRB = molecular target: T23, PDGFRB (Homo sapiens, UniProt P09619); settings: percent activity of kinase after exposure to IST5 1 µM
T23 construct: purchased Reaction Biology (JAK1/2/3, TYK2); Luceome Biotechnologies KinaseSeeker (others)
Experimental: as §1

PIM1 = molecular target: T24, PIM1 (Homo sapiens, UniProt P11309); settings: percent activity of kinase after exposure to IST5 1 µM
T24 construct: purchased Reaction Biology (JAK1/2/3, TYK2); Luceome Biotechnologies KinaseSeeker (others)
Experimental: as §1

PIM2 = molecular target: T25, PIM2 (Homo sapiens, UniProt Q9P1W9); settings: percent activity of kinase after exposure to IST5 1 µM
T25 construct: purchased Reaction Biology (JAK1/2/3, TYK2); Luceome Biotechnologies KinaseSeeker (others)
Experimental: as §1

PYK2 = molecular target: T26, PYK2 (Homo sapiens, UniProt Q14289); settings: percent activity of kinase after exposure to IST5 1 µM
T26 construct: purchased Reaction Biology (JAK1/2/3, TYK2); Luceome Biotechnologies KinaseSeeker (others)
Experimental: as §1

SLK = molecular target: T27, SLK (Homo sapiens, UniProt Q9H2G2); settings: percent activity of kinase after exposure to IST5 1 µM
T27 construct: purchased Reaction Biology (JAK1/2/3, TYK2); Luceome Biotechnologies KinaseSeeker (others)
Experimental: as §1

SYK = molecular target: T28, SYK (Homo sapiens, UniProt P43405); settings: percent activity of kinase after exposure to IST5 1 µM
T28 construct: purchased Reaction Biology (JAK1/2/3, TYK2); Luceome Biotechnologies KinaseSeeker (others)
Experimental: as §1

TBK1 = molecular target: T29, TBK1 (Homo sapiens, UniProt Q9UHD2); settings: percent activity of kinase after exposure to IST5 1 µM
T29 construct: purchased Reaction Biology (JAK1/2/3, TYK2); Luceome Biotechnologies KinaseSeeker (others)
Experimental: as §1

TIE1 = molecular target: T30, TIE1 (Homo sapiens, UniProt P35590); settings: percent activity of kinase after exposure to IST5 1 µM
T30 construct: purchased Reaction Biology (JAK1/2/3, TYK2); Luceome Biotechnologies KinaseSeeker (others)
Experimental: as §1

TNK2 = molecular target: T31, TNK2 (Homo sapiens, UniProt Q07912); settings: percent activity of kinase after exposure to IST5 1 µM
T31 construct: purchased Reaction Biology (JAK1/2/3, TYK2); Luceome Biotechnologies KinaseSeeker (others)
Experimental: as §1

TRKB = molecular target: T32, TRKB (Homo sapiens, UniProt Q16620)
T32 construct: purchased Reaction Biology (JAK1/2/3, TYK2); Luceome Biotechnologies KinaseSeeker (others)
Experimental: as §1

TRKC = molecular target: T33, TRKC (Homo sapiens, UniProt Q16288); settings: percent activity of kinase after exposure to IST5 1 µM
T33 construct: purchased Reaction Biology (JAK1/2/3, TYK2); Luceome Biotechnologies KinaseSeeker (others)
Experimental: as §1

VEGFR2 = molecular target: T34, VEGFR2 (Homo sapiens, UniProt P35968); settings: percent activity of kinase after exposure to IST5 1 µM
T34 construct: purchased Reaction Biology (JAK1/2/3, TYK2); Luceome Biotechnologies KinaseSeeker (others)
Experimental: as §1

YES1 = molecular target: T35, YES1 (Homo sapiens, UniProt P07947); settings: percent activity of kinase after exposure to IST5 1 µM
T35 construct: purchased Reaction Biology (JAK1/2/3, TYK2); Luceome Biotechnologies KinaseSeeker (others)
Experimental: as §1

p38g = molecular target: T36, p38g (Homo sapiens, UniProt P53778); settings: percent activity of kinase after exposure to IST5 1 µM
T36 construct: purchased Reaction Biology (JAK1/2/3, TYK2); Luceome Biotechnologies KinaseSeeker (others)
Experimental: as §1

T32 sequence (Q16620 32-822): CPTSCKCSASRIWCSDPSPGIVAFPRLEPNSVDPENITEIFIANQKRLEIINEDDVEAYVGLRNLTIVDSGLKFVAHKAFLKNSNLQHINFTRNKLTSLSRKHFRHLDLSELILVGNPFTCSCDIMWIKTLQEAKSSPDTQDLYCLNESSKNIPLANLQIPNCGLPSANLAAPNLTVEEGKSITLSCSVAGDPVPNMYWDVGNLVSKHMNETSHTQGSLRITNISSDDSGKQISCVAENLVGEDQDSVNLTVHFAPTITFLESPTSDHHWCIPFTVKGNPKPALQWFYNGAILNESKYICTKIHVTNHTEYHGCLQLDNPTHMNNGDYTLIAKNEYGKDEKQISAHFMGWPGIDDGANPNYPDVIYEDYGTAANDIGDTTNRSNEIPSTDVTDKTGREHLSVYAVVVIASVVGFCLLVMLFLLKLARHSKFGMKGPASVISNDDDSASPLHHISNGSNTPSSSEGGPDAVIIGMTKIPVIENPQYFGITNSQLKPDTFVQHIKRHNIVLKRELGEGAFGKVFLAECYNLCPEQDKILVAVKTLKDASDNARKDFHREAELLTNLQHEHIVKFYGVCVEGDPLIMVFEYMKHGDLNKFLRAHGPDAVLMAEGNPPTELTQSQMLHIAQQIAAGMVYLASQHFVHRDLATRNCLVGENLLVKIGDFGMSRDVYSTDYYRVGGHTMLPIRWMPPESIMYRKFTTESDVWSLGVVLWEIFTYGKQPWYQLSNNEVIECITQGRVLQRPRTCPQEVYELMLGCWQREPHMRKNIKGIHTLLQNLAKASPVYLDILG
T12 sequence (P17948 27-1338): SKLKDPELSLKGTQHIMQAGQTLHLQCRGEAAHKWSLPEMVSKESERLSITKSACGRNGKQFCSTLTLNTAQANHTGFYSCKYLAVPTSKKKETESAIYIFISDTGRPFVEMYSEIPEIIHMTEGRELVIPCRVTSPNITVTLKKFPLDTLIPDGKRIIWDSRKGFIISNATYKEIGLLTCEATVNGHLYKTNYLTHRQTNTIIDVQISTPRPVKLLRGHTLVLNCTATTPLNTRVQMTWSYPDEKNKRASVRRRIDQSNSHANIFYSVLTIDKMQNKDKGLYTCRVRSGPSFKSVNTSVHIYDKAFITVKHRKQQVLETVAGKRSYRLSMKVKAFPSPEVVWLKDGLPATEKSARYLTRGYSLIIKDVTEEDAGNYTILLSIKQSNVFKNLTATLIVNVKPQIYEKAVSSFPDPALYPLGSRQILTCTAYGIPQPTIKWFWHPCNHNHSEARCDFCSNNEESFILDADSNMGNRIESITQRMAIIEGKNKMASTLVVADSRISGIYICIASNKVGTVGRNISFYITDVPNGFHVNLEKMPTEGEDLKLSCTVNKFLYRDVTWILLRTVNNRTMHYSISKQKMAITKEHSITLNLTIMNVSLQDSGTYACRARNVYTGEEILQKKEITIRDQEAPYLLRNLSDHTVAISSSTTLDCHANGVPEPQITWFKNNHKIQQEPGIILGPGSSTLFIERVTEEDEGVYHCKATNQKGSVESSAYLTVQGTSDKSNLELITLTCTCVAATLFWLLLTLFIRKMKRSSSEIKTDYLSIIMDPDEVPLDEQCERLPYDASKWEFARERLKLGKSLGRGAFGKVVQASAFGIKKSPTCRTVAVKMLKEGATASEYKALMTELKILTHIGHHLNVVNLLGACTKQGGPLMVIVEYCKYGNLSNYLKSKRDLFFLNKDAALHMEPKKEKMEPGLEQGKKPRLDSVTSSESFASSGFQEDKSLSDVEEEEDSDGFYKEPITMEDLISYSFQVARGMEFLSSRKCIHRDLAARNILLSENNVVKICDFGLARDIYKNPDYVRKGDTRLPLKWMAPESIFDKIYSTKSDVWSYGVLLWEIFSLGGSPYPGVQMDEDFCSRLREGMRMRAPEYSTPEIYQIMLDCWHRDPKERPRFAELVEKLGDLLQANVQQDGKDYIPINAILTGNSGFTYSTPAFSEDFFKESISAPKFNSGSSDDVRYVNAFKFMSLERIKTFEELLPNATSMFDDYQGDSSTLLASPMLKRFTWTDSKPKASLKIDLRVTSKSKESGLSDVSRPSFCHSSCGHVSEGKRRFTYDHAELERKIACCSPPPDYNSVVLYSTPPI
T7 sequence (P51451 whole entry): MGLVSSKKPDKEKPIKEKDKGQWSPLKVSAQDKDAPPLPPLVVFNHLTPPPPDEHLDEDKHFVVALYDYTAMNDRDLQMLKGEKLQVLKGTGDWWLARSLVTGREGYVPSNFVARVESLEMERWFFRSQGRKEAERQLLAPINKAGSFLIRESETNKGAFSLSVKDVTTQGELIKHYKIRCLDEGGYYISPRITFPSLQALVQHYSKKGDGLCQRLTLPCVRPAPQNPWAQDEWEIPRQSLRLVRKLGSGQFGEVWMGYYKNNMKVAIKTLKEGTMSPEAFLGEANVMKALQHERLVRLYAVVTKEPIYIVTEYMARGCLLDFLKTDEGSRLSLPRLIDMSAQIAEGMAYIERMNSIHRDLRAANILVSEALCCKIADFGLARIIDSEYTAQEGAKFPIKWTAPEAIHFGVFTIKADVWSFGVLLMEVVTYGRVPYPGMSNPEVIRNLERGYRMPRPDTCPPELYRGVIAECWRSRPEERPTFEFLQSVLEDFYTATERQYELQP
T23 sequence (P09619 33-1106): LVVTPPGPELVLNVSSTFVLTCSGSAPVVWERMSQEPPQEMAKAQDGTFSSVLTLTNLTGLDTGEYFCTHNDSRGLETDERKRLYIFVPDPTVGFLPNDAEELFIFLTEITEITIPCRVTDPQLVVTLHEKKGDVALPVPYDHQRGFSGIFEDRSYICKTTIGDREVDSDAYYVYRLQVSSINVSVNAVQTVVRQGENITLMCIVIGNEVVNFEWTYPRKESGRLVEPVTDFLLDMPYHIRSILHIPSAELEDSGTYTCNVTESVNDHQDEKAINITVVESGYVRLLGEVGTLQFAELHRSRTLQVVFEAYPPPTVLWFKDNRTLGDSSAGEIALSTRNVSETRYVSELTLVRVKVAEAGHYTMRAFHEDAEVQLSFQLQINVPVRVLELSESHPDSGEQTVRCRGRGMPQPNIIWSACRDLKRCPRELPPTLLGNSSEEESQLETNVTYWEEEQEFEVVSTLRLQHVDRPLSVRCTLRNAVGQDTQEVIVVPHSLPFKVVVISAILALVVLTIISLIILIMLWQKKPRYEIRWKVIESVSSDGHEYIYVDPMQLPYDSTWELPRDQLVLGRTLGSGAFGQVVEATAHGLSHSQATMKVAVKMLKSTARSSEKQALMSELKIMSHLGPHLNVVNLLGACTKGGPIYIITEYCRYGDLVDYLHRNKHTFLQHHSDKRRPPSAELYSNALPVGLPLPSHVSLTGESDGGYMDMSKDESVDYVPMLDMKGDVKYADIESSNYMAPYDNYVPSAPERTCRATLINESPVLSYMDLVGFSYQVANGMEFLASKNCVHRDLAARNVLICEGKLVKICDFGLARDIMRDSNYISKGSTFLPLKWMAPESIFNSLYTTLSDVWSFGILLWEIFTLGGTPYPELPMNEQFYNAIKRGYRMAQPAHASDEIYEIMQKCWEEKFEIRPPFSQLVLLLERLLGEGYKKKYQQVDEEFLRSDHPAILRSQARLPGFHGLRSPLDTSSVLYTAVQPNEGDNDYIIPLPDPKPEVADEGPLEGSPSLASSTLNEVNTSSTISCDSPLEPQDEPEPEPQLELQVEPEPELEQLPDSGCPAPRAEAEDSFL
T5 sequence (Q96GD4 whole entry): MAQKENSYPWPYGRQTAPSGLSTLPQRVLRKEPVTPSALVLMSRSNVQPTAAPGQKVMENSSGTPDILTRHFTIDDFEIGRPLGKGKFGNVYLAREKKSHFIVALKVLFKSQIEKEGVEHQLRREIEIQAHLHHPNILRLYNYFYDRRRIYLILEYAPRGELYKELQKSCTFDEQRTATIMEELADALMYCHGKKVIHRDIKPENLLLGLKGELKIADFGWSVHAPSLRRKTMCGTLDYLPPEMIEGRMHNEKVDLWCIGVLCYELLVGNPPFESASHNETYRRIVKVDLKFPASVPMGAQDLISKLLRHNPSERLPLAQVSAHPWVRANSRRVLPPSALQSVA
T21 sequence (Q13153 whole entry): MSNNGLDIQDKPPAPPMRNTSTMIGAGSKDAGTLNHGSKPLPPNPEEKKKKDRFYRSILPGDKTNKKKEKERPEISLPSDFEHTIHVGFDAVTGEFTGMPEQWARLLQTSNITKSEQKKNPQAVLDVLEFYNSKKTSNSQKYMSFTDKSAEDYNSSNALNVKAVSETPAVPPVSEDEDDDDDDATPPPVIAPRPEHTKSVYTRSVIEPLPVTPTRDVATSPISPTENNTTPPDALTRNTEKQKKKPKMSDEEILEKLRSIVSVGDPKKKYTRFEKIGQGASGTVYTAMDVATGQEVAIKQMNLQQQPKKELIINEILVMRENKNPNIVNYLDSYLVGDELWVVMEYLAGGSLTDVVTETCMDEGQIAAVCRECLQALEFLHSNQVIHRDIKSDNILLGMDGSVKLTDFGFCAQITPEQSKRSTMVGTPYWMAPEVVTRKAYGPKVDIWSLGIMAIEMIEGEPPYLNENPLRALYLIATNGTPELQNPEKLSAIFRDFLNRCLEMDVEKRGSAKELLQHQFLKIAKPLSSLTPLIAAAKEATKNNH
T25 sequence (Q9P1W9 whole entry): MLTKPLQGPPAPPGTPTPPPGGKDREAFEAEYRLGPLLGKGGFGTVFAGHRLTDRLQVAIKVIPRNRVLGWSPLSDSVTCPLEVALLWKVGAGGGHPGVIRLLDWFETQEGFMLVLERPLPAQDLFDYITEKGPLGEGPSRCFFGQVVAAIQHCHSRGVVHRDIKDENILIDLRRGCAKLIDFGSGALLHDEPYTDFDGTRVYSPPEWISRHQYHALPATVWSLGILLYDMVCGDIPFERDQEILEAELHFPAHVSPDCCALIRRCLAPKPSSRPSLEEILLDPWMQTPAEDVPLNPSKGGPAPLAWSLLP

`O=P(O)(O)OCC1OC(n2cnc3c(NCc4ccccc4)ncnc32)C(O)C1O` (centres unmarked) [IST5] showed an Activity (ABL2) of 88.6%, an Activity (AKT2) of 94.3% and an Activity (AKT3) of 95.8%. It also gave an Activity (AURKA) of 85.3%, an Activity (AURKB) of 96.0% and an Activity (AXL) of 90.4%. The Activity (BLK) was 100.0%, the Activity (CAMK1D) was 92.0% and the Activity (CAMKK1) was 94.2%. It also gave an Activity (CAMKK2) of 100.0%, an Activity (DDR2) of 97.4% and an Activity (FLT1) of 88.4%. The Activity (FLT2/3) was 93.6%, the Activity (IKKe) was 84.8% and the Activity (INSR) was 91.0%. The Activity (LCK) was 88.9%, the Activity (LYN) was 90.4% and the Activity (MLK1) was 100.0%. For the same compound, the Activity (MLK3) was 93.5%, the Activity (MSK2) was 90.0% and the Activity (MUSK) was 100.0%. For the same compound, the Activity (PAK1) was 98.8%, the Activity (PDGFRA) was 100.0% and the Activity (PDGFRB) was 78.4%. It also gave an Activity (PIM1) of 93.9%, an Activity (PIM2) of 91.8% and an Activity (PYK2) of 95.7%. The Activity (SLK) was 92.6%, the Activity (SYK) was 92.1% and the Activity (TBK1) was 92.8%. For the same compound, the Activity (TIE1) was 100.0%, the Activity (TNK2) was 98.3% and the Activity (TRKB; TRKB, percent activity of kinase after exposure to IST5 1 µM) was 89.4%. For the same compound, the “inhibitory activity on TrkB” value (TRKB; Table 1) was “no inhibitory activity”, the Activity (TRKC) was 93.4% and the Activity (VEGFR2) was 89.1%. For the same compound, the Activity (YES1) was 100.0% and the Activity (p38g) was 100.0%.
